Assay results as given in US5760041A, “4-aminoquinazoline EGFR Inhibitors” (American Cyanamid Company, priority 1997, dated 1998).
Where two headings read alike, the source gives them in different places.

Columns and labels:
[1] = tested on: human epidermoid tumors (A431); assay: In vivo inhibition of the growth of human epidermoid tumors (A431) in mice; conditions: for inhibition of tumor growth in vivo (in words): summary of Tables 4-7
Procedure: BALB/c nu/nu female mice (Charles River, Wilmington, Mass.) were used in the in vivo standard pharmacological test procedures. […] When tumors attained a mass of between 100 and 150 mg, the mice were randomized into treatment groups (day zero). Mice were treated IP once a day either on days 1, 5, and 9 or on days 1 through 10 post staging with doses of either 80, 40 or 20 mg/kg/dose of the compound to be evaluated in 0.2% Klucel. Control animals received no drug. Tumor mass was determined every 7 days [(length×width^2)/2] for 28 days post staging. Relative tumor growth (Mean tumor mass on day 7, 14, 21, and 28 divided by the mean tumor mass on day zero) is determined for each treatment group. The % T/C (Tumor/Control) is determined by dividing the relative tumor growth of the treated group by the relative tumor growth of the placebo group and multiplying by 100.

[2] = tested on: NHEK cells; assay: Inhibition of cell growth, [3H]-thymidine incorporation, NHEK; assay type: cell-based; conditions: Homo sapiens, read-out: IC50, NHEK
Procedure: (§1) Representative compounds of this invention were evaluated for their ability to inhibit the growth of the cell lines described below in vitro. The inhibition is quantitated by measuring the decrease in the incorporation of radio-labeled thymidine when the cells are grown in the presence of the inhibitor. A431 and SKBR3 cell lines are obtained from American Type Culture Collection, Rockville, Md. […] NHEK cells are obtained from Clonetics (San Diego, Calif.). Cells were routinely grown in a humidified incubator in 5% CO2 in air.
(§2) Cells were seeded at 10,000 cells/well in 96 well plates in complete media and allowed to grow to log phase. […] After overnight incubation in low serum (or EGF lacking) media, the compounds to be evaluated were added and cells remained in the presence of compounds for 48 to 72 hours. Media with test compound was then removed and complete media was added back. The cells were allowed to grow for 18 hours. This is followed by incubation in [^3 H]thymidine (1mCi/ml in serum/EGF media) for 4 hours. Cells were lysed in 0.5M NaOH for at least 30 min at 37° C. and radioactivity analyzed.
(§3) The cell growth inhibition data is provided below in TABLE 3. […] The % inhibition of the compound evaluated was determined for at least three different concentrations and the IC50 value evaluated from the dose response curve.
(§4) CPM(control) is in units of counts per minute and is a number expressing the amount of [^3 H]thymidine incorporated onto the DNA when cells are grown in the absence of test compound as measured by liquid scintillation counting.

[3] = tested on: SKBR3 cells; assay: Inhibition of cell growth, [3H]-thymidine incorporation, SKBR3; assay type: cell-based; conditions: Homo sapiens
Procedure: Representative compounds of this invention were evaluated for their ability to inhibit the growth of the cell lines described below in vitro. The inhibition is quantitated by measuring the decrease in the incorporation of radio-labeled thymidine when the cells are grown in the presence of the inhibitor. A431 and SKBR3 cell lines are obtained from American Type Culture Collection, Rockville, Md. […] NHEK cells are obtained from Clonetics (San Diego, Calif.). Cells were routinely grown in a humidified incubator in 5% CO2 in air. […] Cells were seeded at 10,000 cells/well in 96 well plates in complete media and allowed to grow to log phase. […] After overnight incubation in low serum (or EGF lacking) media, the compounds to be evaluated were added and cells remained in the presence of compounds for 48 to 72 hours. Media with test compound was then removed and complete media was added back. The cells were allowed to grow for 18 hours. This is followed by incubation in [^3 H]thymidine (1mCi/ml in serum/EGF media) for 4 hours. Cells were lysed in 0.5M NaOH for at least 30 min at 37° C. and radioactivity analyzed. The cell growth inhibition data is provided below in TABLE 3. […] The % inhibition of the compound evaluated was determined for at least three different concentrations and the IC50 value evaluated from the dose response curve. […] CPM(control) is in units of counts per minute and is a number expressing the amount of [^3 H]thymidine incorporated onto the DNA when cells are grown in the absence of test compound as measured by liquid scintillation counting.

[4] = tested on: Neu-3T3 cells; assay: Inhibition of cell growth, [3H]-thymidine incorporation, Neu-3T3; assay type: cell-based; conditions: Mus musculus, read-out: IC50, NEU-3T3
Procedure: as §1, §2, §3, §4

[5] = molecular target: T1, Epidermal Growth Factor Receptor Kinase (EGF-R) (Homo sapiens, UniProt P00533); assay: Inhibition of Epidermal Growth Factor Receptor Kinase (EGF-R), phosphorylation of peptide substrate RR-SRC; assay type: biochemical; conditions: A431 membrane extract; average of number of tests
T1 construct: The enzyme was obtained as a membrane extract of A431 cells; (cells); host or cells: A431 cells (membrane extract)
T1 sequence (P00533 25-1210): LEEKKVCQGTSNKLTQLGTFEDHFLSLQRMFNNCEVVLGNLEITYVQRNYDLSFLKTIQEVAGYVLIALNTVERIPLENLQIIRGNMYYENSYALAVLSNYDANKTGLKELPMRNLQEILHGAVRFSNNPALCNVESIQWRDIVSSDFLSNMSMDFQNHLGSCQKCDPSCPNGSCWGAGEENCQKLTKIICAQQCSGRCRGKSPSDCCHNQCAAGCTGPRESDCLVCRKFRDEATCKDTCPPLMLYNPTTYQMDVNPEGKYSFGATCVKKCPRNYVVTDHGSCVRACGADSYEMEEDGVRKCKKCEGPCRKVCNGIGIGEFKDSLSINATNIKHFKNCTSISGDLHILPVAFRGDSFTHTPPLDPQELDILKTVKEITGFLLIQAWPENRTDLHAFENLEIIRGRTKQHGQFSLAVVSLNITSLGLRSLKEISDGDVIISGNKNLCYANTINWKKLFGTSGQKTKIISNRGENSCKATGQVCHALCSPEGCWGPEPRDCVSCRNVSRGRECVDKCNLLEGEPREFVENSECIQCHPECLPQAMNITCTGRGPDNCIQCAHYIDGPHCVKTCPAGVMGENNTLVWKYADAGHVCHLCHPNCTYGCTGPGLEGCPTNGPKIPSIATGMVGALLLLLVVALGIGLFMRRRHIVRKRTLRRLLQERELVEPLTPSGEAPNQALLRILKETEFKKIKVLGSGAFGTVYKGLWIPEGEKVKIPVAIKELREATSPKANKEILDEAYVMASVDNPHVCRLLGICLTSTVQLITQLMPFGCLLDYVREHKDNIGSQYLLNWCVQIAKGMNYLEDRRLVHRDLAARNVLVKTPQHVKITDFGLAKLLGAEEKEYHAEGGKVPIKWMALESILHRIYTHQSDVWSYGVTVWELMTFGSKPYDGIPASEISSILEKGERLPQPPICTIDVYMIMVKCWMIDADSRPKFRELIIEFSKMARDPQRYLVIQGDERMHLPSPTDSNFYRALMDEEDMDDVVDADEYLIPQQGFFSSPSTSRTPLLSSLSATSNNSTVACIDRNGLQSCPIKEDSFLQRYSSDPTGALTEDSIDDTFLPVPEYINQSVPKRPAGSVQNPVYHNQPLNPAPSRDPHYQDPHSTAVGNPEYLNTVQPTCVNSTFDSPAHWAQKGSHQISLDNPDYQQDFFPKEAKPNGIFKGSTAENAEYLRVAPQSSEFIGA
T1 sequence (P01133 971-1023 partner limits assumed): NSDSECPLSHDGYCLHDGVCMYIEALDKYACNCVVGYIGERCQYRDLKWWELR
Procedure: The % inhibition of the test compound was determined for at least three different concentrations and the IC50 value was evaluated from the dose response curve.
The CPM values were corrected for the background counts produced by ATP in the absence of the enzymatic reaction.

[6] = Table 6, 20 mg/kg IP, day 1 through 10
[7] = Table 6, 20 mg/kg IP, day 1 through 10, * p < 0.01
[8] = Table 6, 80 mg/kg IP, days 1, 5, and 9
[9] = Table 6, 80 mg/kg IP, days 1, 5, and 9, * p < 0.01
[10] = Table 7, 20 mg/kg IP, days through 10
[11] = Table 7, 80 mg/kg IP, days 1, 5, and 9
[12] = Table 4, 20 mg/kg/dose IP, days 1, 5, 9
[13] = Table 4, 20 mg/kg/dose IP, days 1 through 10
[14] = Table 4, 40 mg/kg/dose IP, days 1, 5, 9
[15] = Table 4, 80 mg/kg/dose IP, days 1, 5, 9
[16] = Table 5, 20 mg/kg/dose IP, days 1 through 15
[17] = Table 7, 80 mg/kg IP, days 1, 5, and 9, * p < 0.01

SMILES: C=CC(=O)Nc1cc2c(Nc3cccc(C)c3)ncnc2cc1F [Comparator A, N-[4-[(3-methylphenyl)amino]-6-quinazolinyl]-7-fluoro-2-propenamide, reference compound]
- activity relative to the compound of Example 9 (in words) ([1]; A431 tumors in mice, Tables 6 and 7): substantially less active than the compound of Example 9
- inhibition of tumor growth in vivo (in words) ([1]; A431 tumors in mice): failed to significantly reduce tumor growth at both doses tested
- RTG Day 7 [1, 6]: 4.82
- RTG Day 14 [1, 6]: 7.36
- RTG Day 21 [1, 6]: 8.75
- S/T (No. Survivors/No. Treated on Day +21) [1, 6]: 9/10
- % T/C Day 7 [1, 7]: 87%
- % T/C Day 14 [1, 7]: 63%
- % T/C Day 21 [1, 7]: 56%
- RTG Day 7 [1, 8]: 3.39
- RTG Day 14 [1, 8]: 5.60
- RTG Day 21 [1, 8]: 7.68
- S/T (No. Survivors/No. Treated on Day +21) [1, 8]: 10/10
- % T/C Day 7 [1, 9]: 61%
- % T/C Day 14 [1, 9]: 48%
- % T/C Day 21 [1, 9]: 48%

SMILES: CCCC(=O)Nc1ccc2ncnc(Nc3cccc(Br)c3)c2c1 [Comparator B, N-[4-[(3-bromophenyl)amino]-6-quinazolinyl]-butanamide, reference compound]
- inhibition of tumor growth in vivo (in words) ([1]; A431 tumors in mice): failed to significantly reduce tumor growth at both doses tested
- RTG Day 7 [1, 10]: 2.90
- RTG Day 14 [1, 10]: 4.19
- RTG Day 21 [1, 10]: 5.62
- RTG Day 28 [1, 10]: 8.04
- S/T (No. Survivors/No. Treated on Day +28) [1, 10]: 5/5
- RTG Day 7 [1, 11]: 3.37
- RTG Day 14 [1, 11]: 5.43
- RTG Day 21 [1, 11]: 6.21
- RTG Day 28 [1, 11]: 10.26
- S/T (No. Survivors/No. Treated on Day +28) [1, 11]: 5/5

SMILES: O=C(O)/C=C\C(=O)Nc1ccc2ncnc(Nc3cccc(Br)c3)c2c1 [Example 4, 4-[[4-[(3-Bromophenyl)amino]-6-quinazolinyl]amino]-4-oxo-(Z)-2-butenoic acid]
- IC50 [2]: 170 nM

SMILES: CC(C)=CC(=O)Nc1ccc2ncnc(Nc3cccc(Br)c3)c2c1 [Example 6, N-[4-[(3-Bromophenyl)amino]-6-quinazolinyl]-3-methyl-2-butenamide]
- IC50 ([3]; SK-BR-3, 48 to 72 hours with compound, read-out: IC50, SKBR3): > 50000 nM
- IC50 ([4]; 48 to 72 hours with compound): > 50000 nM

SMILES: CC#CC(=O)Nc1ccc2ncnc(Nc3cccc(Br)c3)c2c1 [Example 9, N-[4-[(3-Bromophenyl)amino]-6-quinazolinyl]-2-butynamide]
- IC50 ([3]; SK-BR-3, read-out: IC50, SKBR3): 1060 nM
- IC50 [2]: 2 nM
- inhibition of tumor growth in vivo (in words) ([1]; A431 tumors in mice): significantly (p<0.01) inhibited human epidermoid tumor growth in vivo
- % T/C Day 7 [1, 12]: 47%
- % T/C Day 16 [1, 12]: 34%
- % T/C Day 21 [1, 12]: 38%
- % T/C Day 28 [1, 12]: 41%
- RTG Day 7 [1, 12]: 1.72
- RTG Day 16 [1, 12]: 2.69
- RTG Day 21 [1, 12]: 4.33
- RTG Day 28 [1, 12]: 6.18
- S/T (No. Survivors/No. Treated on Day +28) [1, 12]: 5/5
- % T/C Day 7 [1, 13]: 20%
- % T/C Day 16 [1, 13]: 13%
- % T/C Day 21 [1, 13]: 11%
- % T/C Day 28 [1, 13]: 17%
- RTG Day 7 [1, 13]: 0.75
- RTG Day 16 [1, 13]: 1.01
- RTG Day 21 [1, 13]: 1.25
- RTG Day 28 [1, 13]: 2.53
- S/T (No. Survivors/No. Treated on Day +28) [1, 13]: 5/5
- % T/C Day 7 [1, 14]: 40%
- % T/C Day 16 [1, 14]: 28%
- % T/C Day 21 [1, 14]: 27%
- % T/C Day 28 [1, 14]: 27%
- RTG Day 7 [1, 14]: 1.48
- RTG Day 16 [1, 14]: 2.23
- RTG Day 21 [1, 14]: 3.05
- RTG Day 28 [1, 14]: 4.04
- S/T (No. Survivors/No. Treated on Day +28) [1, 14]: 5/5
- % T/C Day 7 [1, 15]: 18%
- % T/C Day 16 [1, 15]: 11%
- % T/C Day 21 [1, 15]: 9%
- % T/C Day 28 [1, 15]: 9%
- RTG Day 7 [1, 15]: 0.71
- RTG Day 16 [1, 15]: 0.91
- RTG Day 21 [1, 15]: 1.07
- RTG Day 28 [1, 15]: 1.36
- S/T (No. Survivors/No. Treated on Day +28) [1, 15]: 5/5
- % T/C Day 7 [1, 16]: 35%
- % T/C Day 14 [1, 16]: 22%
- % T/C Day 21 [1, 16]: 19%
- % T/C Day 28 [1, 16]: 22%
- RTG Day 7 [1, 16]: 1.11
- RTG Day 14 [1, 16]: 1.26
- RTG Day 21 [1, 16]: 1.51
- RTG Day 28 [1, 16]: 2.55
- S/T (No. Survivors/No. Treated on Day +28) [1, 16]: 14/15
- RTG Day 7 [1, 6]: 0.79
- RTG Day 14 [1, 6]: 1.39
- RTG Day 21 [1, 6]: 2.55
- S/T (No. Survivors/No. Treated on Day +21) [1, 6]: 10/10
- % T/C Day 7 [1, 7]: 14%
- % T/C Day 14 [1, 7]: 12%
- % T/C Day 21 [1, 7]: 16%
- RTG Day 7 [1, 8]: 1.25
- RTG Day 14 [1, 8]: 2.50
- RTG Day 21 [1, 8]: 3.77
- S/T (No. Survivors/No. Treated on Day +21) [1, 8]: 10/10
- % T/C Day 7 [1, 9]: 18%
- % T/C Day 14 [1, 9]: 21%
- % T/C Day 21 [1, 9]: 24%
- RTG Day 7 [1, 11]: 0.89
- RTG Day 14 [1, 11]: 1.50
- RTG Day 21 [1, 11]: 2.44
- RTG Day 28 [1, 11]: 3.45
- S/T (No. Survivors/No. Treated on Day +28) [1, 11]: 5/5
- % T/C Day 7 [1, 17]: 25%
- % T/C Day 14 [1, 17]: 27%
- % T/C Day 21 [1, 17]: 42%
- % T/C Day 28 [1, 17]: 45%

SMILES: O=C(O)/C=C/C(=O)Nc1ccc2ncnc(Nc3cccc(Br)c3)c2c1 [Example 10, 4-[[4-[(3-Bromophenyl)amino]-6-quinazolinyl]amino]-4-oxo-(E)-2-butenoic acid]
- IC50 [4]: 15000 nM

SMILES: O=C(C#Cc1ccccc1)Nc1ccc2ncnc(Nc3cccc(Br)c3)c2c1 [Example 14, N-[4-[(3-bromophenyl)amino]-6-quinazolinyl]-(3-phenyl-2-propynamide)]
- IC50 [5]: 1000 nM

SMILES: COc1cc2ncnc(Nc3cccc(Br)c3)c2cc1OC [N-(3-bromophenyl)-6,7-dimethoxy-4-quinazolinamine, reference compound]
- inhibition of tumor growth in vivo (in words) ([1]; A431 tumors in mice): devoid of antineoplastic activity
- % T/C Day 7 [1, 16]: 95%
- % T/C Day 14 [1, 16]: 116%
- % T/C Day 21 [1, 16]: 128%
- % T/C Day 28 [1, 16]: 140%
- RTG Day 7 [1, 16]: 3.03
- RTG Day 14 [1, 16]: 6.58
- RTG Day 21 [1, 16]: 10.5
- RTG Day 28 [1, 16]: 14.47
- S/T (No. Survivors/No. Treated on Day +28) [1, 16]: 15/15
